Test results reported in patent US4442115A, “2'Hydroxy tetrazole-5-carboxanilides and anti-allergic use thereof” (May & Baker Limited, priority 1977, dated 1984).

Key:
Format in all cases: in vivo
[1] = tested on: passive cutaneous anaphylactic (PCA) reaction; experiment: suppression of passive cutaneous anaphylactic (PCA) reaction, intravenous administration; conditions: Rattus norvegicus, rats, i.v., just before injection of allergen, read-out: ED 100 (i.v.): intravenous dose which produces 100% inhibition of the PCA reaction
Excerpt: (§1) In pharmacological tests the new compounds suppress the passive cutaneous anaphylactic (PCA) reaction resulting from combination of tissue-fixed reaginic antibodies with the appropriate antigenic material (termed reagin-allergen combination) and carried out in an essentially similar manner to that described by Ogilvie [Nature (Lond.), (1964), 204, 91-92; Immunology, (1967), 12, 112-131]. In the method used to test these compounds sera were obtained from rats which had been infected with larvae of the nematode parasite Nippostrongylus brasiliensis; as a result of the parasitic infestation reaginic antibodies are elaborated in the host mammal and are found in sera removed from such animals. Other, non-infected, rats received intradermal injections of appropriate dilutions of such sera and were then given the allergenic material along with Evans' blue dye intravenously forty-eight hours later.
(§2) The allergenic material consisted of supernatant fluid after centrifugation of homogenates of adult Nippostrongylus brasiliensis worms which had been macerated in Tyrode's solution. The sites of PCA reactions were visualised by the effusion of Evans' blue dye from the circulation into those areas as a result of increased capillary permeability caused by the release of biologically-active substances from cells where reagin-allergen combination had occurred. The new compounds when given intravenously to the rats just before injection of allergen, or administered orally thirty minutes before intravenous injection of allergen, were able to prevent the development of the PCA reaction, as shown below in Table I and Table II.

[2] = tested on: passive cutaneous anaphylactic (PCA) reaction; experiment: suppression of passive cutaneous anaphylactic (PCA) reaction, oral administration; conditions: Rattus norvegicus, rats, p.o., thirty minutes before intravenous injection of allergen, read-out: ED 50 (p.o.): oral dose which produces 50% inhibition of the PCA reaction
Excerpt: as §1, §2

[3] = oral toxicity in mice; conditions: 1000 mg/kg animal body weight, observation period of 3 days

| SMILES | ED100 [1] [mg/kg] | ED50 [2] [mg/kg] | deaths during observation period [3] |
| --- | --- | --- | --- |
| CC(=O)c1cc(N)cc(NC(=O)c2nnn[nH]2)c1O [P, 3'-acetyl-5'-amino-2'-hydroxytetrazole-5-carboxanilide] | 0.05 |  |  |
| CON=C(C)c1cc(C)cc(NC(=O)c2nn[nH]n2)c1O [EE, 2'-hydroxy-3'-(1-methoxyimino)ethyl-5'-methyltetrazole-5-carboxanilide] | 0.02 |  |  |
| CCOC(=O)c1cc(C)cc(NC(=O)c2nnn[nH]2)c1O [X, 3'-ethoxycarbonyl-2'-hydroxy-5'-methyltetrazole-5-carboxanilide] | 0.01 | 36 |  |
| O=C(Nc1ccccc1O)c1nnn[nH]1 [Compound A, 2'-hydroxytetrazole-5-carboxanilide] | 0.2 | 5.5 |  |
| CC(=O)c1cc(C#N)cc(NC(=O)c2nnn[nH]2)c1O [H, 3'-acetyl-5'-cyano-2'-hydroxytetrazole-5-carboxanilide] | 0.01 | 0.4 |  |
| CCc1cc(NC(=O)c2nnn[nH]2)c(O)c(C(C)=O)c1 [Compound D, 3'-acetyl-5'-ethyl-2'-hydroxytetrazole-5-carboxanilide] | 0.01 | 0.19 |  |
| CC(=O)c1cc([N+](=O)[O-])cc(NC(=O)c2nnn[nH]2)c1O [E, 3'-acetyl-2'-hydroxy-5'-nitrotetrazole-5-carboxanilide] | 0.02 | 0.04 |  |
| CC(=O)c1cc(Br)cc(NC(=O)c2nnn[nH]2)c1O [L, 3'-acetyl-5'-bromo-2'-hydroxytetrazole-5-carboxanilide] | 0.05 |  |  |
| COc1cc(NC(=O)c2nnn[nH]2)c(O)c(C(C)=O)c1 [M, 3'-acetyl-2'-hydroxy-5'-methoxytetrazole-5-carboxanilide] | 0.01 |  |  |
| COc1cccc(NC(=O)c2nnn[nH]2)c1O [R, 2'-hydroxy-3'-methoxytetrazole-5-carboxanilide] | 0.02 | 2.9 |  |
| CCc1cc(NC(=O)c2nnn[nH]2)c(O)c(OC)c1 [S, 5'-ethyl-2'-hydroxy-3'-methoxytetrazole-5-carboxanilide] | 0.01 | 1.8 |  |
| COc1cc(Br)cc(NC(=O)c2nnn[nH]2)c1O [CC, 5'-bromo-2'-hydroxy-3'-methoxytetrazole-5-carboxanilide] | 0.05 | 16 |  |
| Cc1cc(NC(=O)c2nnn[nH]2)c(O)c(C(=O)C(C)C)c1 [G, 2'-hydroxy-3'-isobutyryl-5'-methyltetrazole-5-carboxanilide] | 0.02 | 3.2 |  |
| CCC(=O)c1cc(C)cc(NC(=O)c2nnn[nH]2)c1O [BB, 2'-hydroxy-5'-methyl-3'-propionyltetrazole-5-carboxanilide] | 0.02 | 0.88 |  |
| CC(=NO)c1cc(C)cc(NC(=O)c2nn[nH]n2)c1O [Compound DD, 2'-hydroxy-3'-(1-hydroxyimino)ethyl-5'-methyltetrazole-5-carboxanilide] | 0.002 |  |  |
| CCc1cccc(NC(=O)c2nnn[nH]2)c1O [Compound C, 3'-ethyl-2'-hydroxytetrazole-5-carboxanilide] | 0.1 | 0.7 |  |
| Cc1cc(NC(=O)c2nnn[nH]2)c(O)c(C(=O)C2CC2)c1 [I, 3'-cyclopropylcarbonyl-2'-hydroxy-5'-methyltetrazole-5-carboxanilide] | 0.02 |  | no deaths occurred |
| CCCC(=O)c1cc(C)cc(NC(=O)c2nnn[nH]2)c1O [U, 3'-butyryl-2'-hydroxy-5'-methyltetrazole-5-carboxanilide] | 0.05 |  |  |
| Cc1cc(NC(=O)c2nnn[nH]2)c(O)c(C(=O)N(C)C)c1 [V, 3'-(N,N-dimethylcarbamoyl)-2'-hydroxy-5'-methyltetrazole-5-carboxanilide] | 0.2 |  |  |
| COc1cc(C)cc(NC(=O)c2nnn[nH]2)c1O [T, 2'-hydroxy-3'-methoxy-5'-methyltetrazole-5-carboxanilide] | 0.02 | 6.5 |  |
| CC(=O)c1cc(F)cc(NC(=O)c2nnn[nH]2)c1O [K, 3'-acetyl-5'-fluoro-2'-hydroxytetrazole-5-carboxanilide] | 0.01 |  |  |
| CCCc1cc(NC(=O)c2nnn[nH]2)c(O)c(C(C)=O)c1 [Y, 3'-acetyl-2'-hydroxy-5'-propyltetrazole-5-carboxanilide] | 0.01 | 0.46 |  |
| COC(=O)c1cc(C)cc(NC(=O)c2nnn[nH]2)c1O [W, 2'-hydroxy-3'-methoxycarbonyl-5'-methyltetrazole-5-carboxanilide] | 0.05 | 5.6 |  |
| CCC(=O)c1cc(CC)cc(NC(=O)c2nnn[nH]2)c1O [AA, 5'-ethyl-2'-hydroxy-3'-propionyltetrazole-5-carboxanilide] | 0.01 | 1.3 |  |
| CCC(=O)c1cc(C#N)cc(NC(=O)c2nnn[nH]2)c1O [N, 5'-cyano-2'-hydroxy-3'-propionyltetrazole-5-carboxanilide] | 0.02 |  |  |
| CC(=O)c1cccc(NC(=O)c2nnn[nH]2)c1O [Z, 3'-acetyl-2'-hydroxytetrazole-5-carboxanilide] | 0.005 | 0.06 |  |
| CC(=O)c1cc(C)cc(NC(=O)c2nnn[nH]2)c1O [Compound B, 3'-acetyl-2'-hydroxy-5'-methyltetrazole-5-carboxanilide] | 0.01 | 0.06 | no deaths occurred |
